Data on one compound can be found in US7019015B2, “Fungicide for plants” (Valent BioSciences, Inc., priority 2003, dated 2006).

Data set [1] relates to Phaseolus vulgaris (Bush bean cv. Blue Lake 274) leaves. Kind of data set: Detached bean leaf bioassay, phytotoxicity rating. It is filed as in vivo. How it is done: Compound solution: Compound solutions were prepared by diluting compound stock solutions (1.0% w/v compound in DMSO) to 200 ppm with 0.01% w/v Triton X-100. Plant material: Middle trifoliate leaves of greenhouse grown Phaseolus vulgaris (Bush bean cv. Blue Lake 274) were excised and placed on a plastic grid above a tray containing moist towels. Treatment method: One half of the adaxial surface of the leaf was treated with the compound solution (100 :L) using a 3 cm Bacti Cell Spreader. A blank consisted of 0.01% w/v Triton X-100. A commercial fungicide control (200 ppm diluted with water) consisted of Scala. After the solutions dried, the trays containing the leaves were covered and held one day in a growth chamber (22C). The adaxial surfaces of the leaves were then inoculated with 5–60 :L droplets of Botrytis cinerea spore solution. Phytotoxicity ratings: Phytotoxicity was rated as 0=no phytotoxicity, 1=slight phytotoxicity, 2=moderate phytotoxicity, or 3=excessive phytotoxicity (Table 2).

Data set [2] concerns Sclerotinia sclerotiorum. Kind of data set: Contact evaluation (microtiter plate), Sclerotinia sclerotiorum. It counts as cell-based. The conditions noted are these: Sclerotinia scierotionum. The procedure: (§1) Compound solution: Contact evaluations were conducted to determine the anti-fungal activity of each compound against Botrytis cinerea, Sclerotinia sclerotiorum, Pythium aphanidermatum, Rhizoctonia solani, Cercospora arachidicola, Mycosphaerella fijiensis, and Monilinia laxa. Five milligrams of each compound were dissolved in 0.5 milliliter of DMSO for a compound stock solution of 1.0% w/v. Compound stock solutions were serial diluted with DMSO to 20, 10, and 2 ppm final well concentration. Fungi preparation: Botrytis cinerea spores were taken from 6-week-old cultures grown at 22C on full strength potato dextrous agar (PDA) plates. Sclerotinia sclerotiorum, Pythium aphanidermatum, Rhizoctonia solani, and Monilinia laxa mycelia were taken from 4- to 10-day-old shake flask cultures grown at room temperature on full strength potato dextrous broth (PDB). Cercospora arachidicola mycelia were taken from 10- to 14-day-old shake flask cultures grown at room temperature on a full strength PDB amended with peanut oil. Mycosphaerella fijiensis mycelia were taken from 10- to 14-day-old shake flask cultures grown at room temperature on V8 juice broth. Sclerotinia sclerotiorum, Pythium aphanidermatum, Rhizoctonia solani, Cercospora arachidicola, and Mycosphaerella fijiensis mycelia (0.4 g mycelia) were blended for 45 seconds in 20 mL sterile de-ionized water. Monilinia laxa mycelia (1 g mycelia) was blended for 45 seconds in 30 mL of sterile de-ionized water. Botrytis cinerea spores were diluted with quarter strength PDB to 1×10^5 spores/mL final well concentration. All mycelia were diluted in water (1:5 mycelia:water) before distributing into the wells. Microtiter plate preparation: Compound solution (10 :L), quarter strength PDB (900 :L) and fungi preparation (100 :L) were sequentially distributed into 48-well microtiter plates (n=3 replications/compound/rate). A blank consisted of quarter strength PDB and fungi preparation. […] Final readings were the average of the three wells (Table 1).

Data set [3] relates to Mycosphaerella fijiensis. Kind of data set: Contact evaluation (microtiter plate), Mycosphaerella fijiensis. It is filed as cell-based. How it is done: as §1
For data set [4], the system named is Botrytis cinerea. As to the kind of experiment: Contact evaluation (microtiter plate), Botrytis cinerea. It counts as cell-based. The procedure: as §1
Data set [5] deals with Cercospora arachidicola. Kind of data set: Contact evaluation (microtiter plate), Cercospora arachidicola. It counts as cell-based. How it is done:
as §1

Data set [6] has as its system Monilinia laxa. Kind of data set: Contact evaluation (microtiter plate), Monilinia laxa. It counts as cell-based. The procedure:
as §1

Data set [7] relates to Rhizoctonia solani. Kind of data set: Contact evaluation (microtiter plate), Rhizoctonia solani. The conditions noted are these: Rhizoctinia solani. It is filed as cell-based. How it is done: as §1
Data set [8] deals with Pythium aphanidermatum. Kind of data set: Contact evaluation (microtiter plate), Pythium aphanidermatum. It is filed as cell-based. The procedure:
as §1

Data set [9] deals with Botrytis cinerea. As to the kind of experiment: Detached bean leaf bioassay, fungal control. It counts as in vivo. The conditions noted are these: 200 ppm on detached bean leaf; 100 minus percent necrotic area, three days after inoculation. The procedure:
Detached Bean Leaf Bioassay
Compound solution: Compound solutions were prepared by diluting compound stock solutions (1.0% w/v compound in DMSO) to 200 ppm with 0.01% w/v Triton X-100.
Spore solution preparation: Botrytis cinerea spores were taken from 6-week-old cultures grown at 22C on full strength potato dextrous agar (PDA) plates and harvested in 1:16 frozen orange juice concentrate:water. Botrytis cinerea spore solutions were prepared by diluting spore cultures to 5×10^4 spores/mL with 1:16 frozen orange juice concentrate:water.
Plant material: Middle trifoliate leaves of greenhouse grown Phaseolus vulgaris (Bush bean cv. Blue Lake 274) were excised and placed on a plastic grid above a tray containing moist towels.
Treatment method: One half of the adaxial surface of the leaf was treated with the compound solution (100 :L) using a 3 cm Bacti Cell Spreader. A blank consisted of 0.01% w/v Triton X-100. A commercial fungicide control (200 ppm diluted with water) consisted of Scala. […]
Fungal control rating: Three days after inoculation with Botrytis, the percent necrotic area under the inoculation droplet was determined. Since the areas under the blank (0.01% w/v Triton X-100) were 100% infected, fungal control was expressed as 100 minus the percent necrotic area, and thus 0% infected is 100% fungal control (n=3 leaves/compound, 5 inoculation droplets/leaf, Table 2).

As for `COc1ccc(C2(OC)c3ccccc3N(c3ccccc3)c3ccccc32)cc1` [formula I, 9-phenyl-10-methoxy-10-(4-methoxyphenyl)-9,10-dihydroacridine], the “Phytotoxity (200 ppm)” value in data set [1] is listed as “Slight”. For the same compound, the “Control of fungi (full, partial, none)” value in data set [2] (fungicide rate 2 ppm) was “Partial”; in [2] (fungicide rate 10 ppm), “Full”; in data set [2] (fungicide rate 20 ppm), “Full”; in data set [3] (fungicide rate 2 ppm), “None”; in [3] (fungicide rate 10 ppm) it was “Partial”; in [3] (fungicide rate 20 ppm), “Full”. The “Control of fungi (full, partial, none)” value in [4] (fungicide rate 2 ppm) is “Partial”; in data set [4] (fungicide rate 10 ppm) it was “Full”; in data set [4] (fungicide rate 20 ppm), “Full”; in data set [5] (fungicide rate 2 ppm), “None”; in data set [5] (fungicide rate 10 ppm), “Full”; in data set [5] (fungicide rate 20 ppm) it was “Full”. Further, the “Control of fungi (full, partial, none)” value in [6] (fungicide rate 2 ppm), in [6] (fungicide rate 10 ppm), in data set [6] (fungicide rate 20 ppm), in data set [7] (fungicide rate 2 ppm), in data set [7] (fungicide rate 10 ppm) and in [7] (fungicide rate 20 ppm) was “Full” each time. In addition, the “Control of fungi (full, partial, none)” value in [8] (fungicide rate 2 ppm), in data set [8] (fungicide rate 10 ppm) and in data set [8] (fungicide rate 20 ppm) was “Full” in each case. In addition, in data set [9], the “Botrytis cinerea control (200 ppm)” value is recorded as 80%.
